Biological target: cGMP-specific 3',5'-cyclic phosphodiesterase (Homo sapiens, UniProt O76074)
Test: Inhibition of PDE5 (unknown origin)

Structure (SMILES) | IC50 [nM]
Cc1noc(C)c1-c1ccc2nc(NCCN3CCOCC3)c(=O)n(CC3CCCCC3)c2n1 | 36.3
COc1ccc(-c2ccc3nc(NCCN4CCOCC4)c(=O)n(CC4CCCCC4)c3n2)cn1 | 26.9
COc1ccc(-c2ccc3nc(NCC(=O)N(C)C)c(=O)n(CC4CCCCC4)c3n2)cn1 | 14.5

Second part, the molecule after the results:

IC50 [nM] | Structure (SMILES)
2.88 | O=c1c(NCC2CCOCC2)nc2ccc(-c3cnc(O)nc3)nc2n1CC1CCCCC1
537 | O=c1c(NCCN2CCOCC2)nc2ccc(-c3ccc(O)nc3)nc2n1CC1CCCCC1
2.29 | COc1ccc(-c2ccc3nc(NCC4CCOCC4)c(=O)n(CC4CCCCC4)c3n2)cn1
33.9 | O=c1c(NCC2CCOCC2)nc2ccc(-c3ccncc3)nc2n1CC1CCCCC1

From ChEMBL document CHEMBL3045064, “3D-QSAR of amino-substituted pyrido[3,2B]pyrazinones as PDE-5 inhibitors” (Med Chem Res, 2012)
